Holding throughout (format): cell-based
Assay [1] deals with T1, PAR2 (HT-29 cells) (Homo sapiens, UniProt P55085).
T1 construct: host or cells: HT-29
T1 sequence (P55085 26-397): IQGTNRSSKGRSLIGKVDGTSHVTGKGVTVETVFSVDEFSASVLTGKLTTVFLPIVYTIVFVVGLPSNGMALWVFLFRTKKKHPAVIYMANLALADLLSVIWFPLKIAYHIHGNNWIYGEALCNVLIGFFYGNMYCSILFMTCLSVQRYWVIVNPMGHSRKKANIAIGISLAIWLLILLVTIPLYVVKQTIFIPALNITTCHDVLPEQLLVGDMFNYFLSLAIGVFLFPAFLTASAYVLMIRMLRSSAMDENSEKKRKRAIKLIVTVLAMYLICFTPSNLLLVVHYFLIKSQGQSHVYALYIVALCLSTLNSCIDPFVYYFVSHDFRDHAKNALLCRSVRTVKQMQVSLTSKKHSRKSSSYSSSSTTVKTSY
As to the kind of experiment: Ca FLIPR TETRA assay, ANTAGONIST mode, activator 8 μM SLIGKV. The conditions noted are these: HT-29 cells, activator 8 μM SLIGKV; maximal antagonist concentration per Method (A: 0.1, 1 or 2 μM; B: 50 μM). In a few lines: (§1)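 HT-29 cells in 1% FBS/McCoy's overnight, loaded with FLIPR Calcium 5 dye (45 min 37 °C, 15 min r.t.); compounds added and read for intrinsic Ca2+ activation, then after 30 min r.t. stimulated with fixed activator: 8 μM SLIGKV, 0.6 μM UTP, 1 U/mL thrombin or 3.1 U/mL trypsin (final).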

Assay [2] addresses T1, PAR2 (HT-29 cells). In words: Ca FLIPR TETRA assay, ANTAGONIST mode, activator 3.1 U/mL trypsin. Particulars: HT-29 cells, activator 3.1 U/mL trypsin; maximal antagonist concentration per Method (A: 0.1, 1 or 2 μM; B: 50 μM). In a few lines:
as §1

In assay [3] the test system is Thrombin-stimulated Ca2+ response in HT-29 cells. In words: Ca FLIPR TETRA assay, ANTAGONIST mode, activator 1 U/mL Thrombin. The conditions noted are these: Homo sapiens; HT-29 cells, activator 1 U/mL Thrombin. In short, it runs like this:
as §1

Assay [4] relates to UTP-stimulated Ca2+ response in HT-29 cells. As to the kind of experiment: Ca FLIPR TETRA assay, ANTAGONIST mode, activator 0.6 μM UTP. The conditions noted are these: Homo sapiens; HT-29 cells, activator 0.6 μM UTP. In a few lines: as §1

Structures are written as SMILES. A value given as a limit tells only on which side of the number the result lay.

In patent publication US20180057505A1, “BICYCLIC HETEROARYL COMPOUNDS USEFUL AS INHIBITORS OF THE PAR-2 SIGNALING PATHWAY” (VERTEX PHARMACEUTICALS INCORPORATED, priority 2015, published 2018) one finds IC50 data, which are given here for 30 compounds.

Take `CC(C)(C)c1cc(-c2ccc(F)cc2)nc2cc(C(=O)N3CCN(C(=O)c4ccn[nH]4)CC3(C)C)oc12` [Example I-152]: the IC50 is 8.1 nM in assay [1], 7.7 nM in assay [2], over 1000 nM in assay [3] and over 1000 nM in assay [4].

As to `CC(C)(C)c1cc(-c2ccc(Cl)cc2)nc2cc(C(=O)N3CCNC(=O)C3(C)C)oc12` [Example I-153, 4-[7-tert-butyl-5-(4-chlorophenyl)furo[3,2-b]pyridine-2-carbonyl]-3,3-dimethyl-piperazin-2-one], the IC50 in assay [1] was 4.9 nM; in assay [2], 3 nM; in assay [3] it was over 1000 nM; in assay [4] it was over 1000 nM.

As for `CC(C)(C)c1cc(-c2ccc(F)cc2)nc2cc(C(=O)N3CCN(C(=O)c4nnc[nH]4)CC3(C)C)oc12` [Example I-154], the IC50 in assay [1] was 4.7 nM; in assay [2] it was 3.6 nM; in assay [3], over 1000 nM; in assay [4], over 1000 nM.

As for `CC(C)c1cc(-c2ccc(C(F)(F)F)cc2)nc2cc(C(=O)N3CCNC(=O)C3(C)C)oc12` [Example I-155], the IC50 in assay [1] is 14 nM; in assay [2], 28 nM; in assay [3] it was over 1000 nM; in assay [4], over 1000 nM.

On to `CC(C)(C)c1cc(-c2ccc(C(F)(F)F)cc2)nc2cc(C(=O)N3CCNC(=O)C3(C)C)oc12` [Example I-156], for which the half-inhibitory concentration (IC50) is 18 nM in assay [1], 26 nM in assay [2], over 1000 nM in assay [3] and over 1000 nM in assay [4].

Regarding `CC(C)(C)c1cc(-c2ccc(C(F)(F)F)cc2)nc2cc(C(=O)N3CCN(C(=O)[C@H]4C[C@@](C)(O)C4)CC3(C)C)oc12` [Example I-158], the IC50 in assay [1] is 3.1 nM; in assay [2] it was 3.9 nM; in assay [3], over 1000 nM; in assay [4], over 1000 nM.

As to `CC(C)(C)c1cc(-c2ccc(Cl)cc2)nc2cc(C(=O)N3CCN(C(=O)[C@H]4C[C@@](C)(O)C4)CC3(C)C)oc12` [Example I-159], the IC50 in assay [1] was 0.6 nM; in assay [2], 1.1 nM; in assay [3] it was over 1000 nM; in assay [4] it was over 1000 nM.

As to `Cc1nnc(C(=O)N2CCN(C(=O)c3cc4nc(-c5ccc(F)cc5)cc(C(C)(C)C)c4o3)C(C)(C)C2)[nH]1` [Example I-160], the IC50 in assay [1] is 1.6 nM; in assay [2] it was 3.1 nM; in assay [3] it was over 1000 nM; in assay [4] it was over 1000 nM.

On to `Cc1cc(-c2cc(C(C)(C)C)c3oc(C(=O)N4CCNC(=O)C4(C)C)cc3n2)ccc1F` [Example I-161], for which the IC50 is 16 nM in assay [1], 25 nM in assay [2], over 1000 nM in assay [3] and over 1000 nM in assay [4].

As to `Cc1cc(-c2cc(C(C)(C)C)c3oc(C(=O)N4CCN(C(=O)c5nnc[nH]5)CC4(C)C)cc3n2)ccc1F` [Example I-162], the IC50 is 10 nM in assay [1], 15 nM in assay [2], over 1000 nM in assay [3] and over 1000 nM in assay [4].

As to `Cc1cc(-c2cc(C(C)(C)C)c3oc(C(=O)N4CCN(C(=O)[C@H]5C[C@@](C)(O)C5)CC4(C)C)cc3n2)ccc1F` [Example I-163], the IC50 was 2.9 nM in assay [1], 3.6 nM in assay [2], over 1000 nM in assay [3] and over 1000 nM in assay [4].

On to `Cc1ccc(-c2cc(C(C)(C)C)c3oc(C(=O)N4CCN(C(=O)[C@H]5C[C@@](C)(O)C5)CC4(C)C)cc3n2)cc1` [Example I-164], for which the IC50 in assay [1] was 2.9 nM; in assay [2], 4 nM; in assay [3], over 1000 nM; in assay [4], over 1000 nM.

As for `Cc1ccc(-c2cc(C(C)(C)C)c3oc(C(=O)N4CCNC(=O)C4(C)C)cc3n2)cc1` [Example I-165], the IC50 in assay [1] was 16 nM; in assay [2], 19 nM; in assay [3], over 1000 nM; in assay [4], over 1000 nM.

Turning to `Cc1nnc(C(=O)N2CCN(C(=O)c3cc4nc(-c5ccc(F)c(C)c5)cc(C(C)(C)C)c4o3)C(C)(C)C2)[nH]1` [Example I-166], the 50% inhibitory concentration (IC50) was 1.3 nM in assay [1], 3.3 nM in assay [2], over 1000 nM in assay [3] and over 1000 nM in assay [4].

In the case of `Cc1cc(-c2cc(C(C)(C)C)c3oc(C(=O)N4CCN(C(=O)c5ccn[nH]5)CC4(C)C)cc3n2)ccc1F` [Example I-167], the IC50 is 8.4 nM in assay [1], 19 nM in assay [2], over 1000 nM in assay [3] and over 1000 nM in assay [4].

As to `CC(C)(C)c1cc(-c2ccc(Cl)cc2)nc2cc(C(=O)N3CCN(C(=O)c4ccn[nH]4)CC3(C)C)oc12` [Example I-168], the IC50 in assay [1] was 2.8 nM; in assay [2], 3 nM; in assay [3], over 1000 nM; in assay [4], over 1000 nM.

Take `CC(C)(C)c1cc(-c2ccc(Cl)cc2)nc2cc(C(=O)N3CCN(C(=O)c4nnc[nH]4)CC3(C)C)oc12` [Example I-169]: the concentration for half-maximal inhibition (IC50) was 0.9 nM in assay [1], 2.4 nM in assay [2], over 1000 nM in assay [3] and over 1000 nM in assay [4].

For the compound `Cc1ncc(C(=O)N2CCN(C(=O)c3cc4nc(-c5ccc(C(F)(F)F)cc5)cc(C(C)(C)C)c4o3)C(C)(C)C2)[nH]1` [Example I-170], the IC50 in assay [1] is 6 nM; in assay [2] it was 8.2 nM; in assay [3] it was over 1000 nM; in assay [4], over 1000 nM.

For `Cc1cc(C(=O)N2CCN(C(=O)c3cc4nc(-c5ccc(C(F)(F)F)cc5)cc(C(C)(C)C)c4o3)C(C)(C)C2)[nH]n1` [Example I-171], the IC50 in assay [1] is 5.6 nM; in assay [2] it was 6.6 nM; in assay [3], over 1000 nM; in assay [4], over 1000 nM.

As for `CC(C)(C)c1cc(-c2ccc(Cl)c(F)c2)nc2cc(C(=O)N3CCNC(=O)C3(C)C)oc12` [Example I-172, 4-[7-tert-butyl-5-(4-chloro-3-fluoro-phenyl)furo[3,2-b]pyridine-2-carbonyl]-3,3-dimethyl-piperazin-2-one], the IC50 in assay [1] was 10 nM; in assay [2], 12 nM; in assay [3] it was over 1000 nM; in assay [4], over 1000 nM.

Turning to `CC(C)(C)c1cc(-c2ccc(C(F)(F)F)cc2)nc2cc(C(=O)N3CCN(C(=O)c4nnc[nH]4)CC3(C)C)oc12` [Example I-173], the IC50 in assay [1] was 4.8 nM; in assay [2] it was 7.5 nM; in assay [3], over 1000 nM; in assay [4] it was over 1000 nM.

With `Cc1nnc(C(=O)N2CCN(C(=O)c3cc4nc(-c5ccc(C(F)(F)F)cc5)cc(C(C)(C)C)c4o3)C(C)(C)C2)[nH]1` [Example I-174], the IC50 in assay [1] was 1.9 nM; in assay [2], 3.2 nM; in assay [3], over 1000 nM; in assay [4], over 1000 nM.

For `Cc1nnc(C(=O)N2CCN(C(=O)c3cc4nc(-c5ccc(C(F)(F)F)cc5)cc(C(C)(C)C)c4o3)C(C)(C)C2)o1` [Example I-175], the IC50 in assay [1] is 16 nM; in assay [2], 16 nM; in assay [3] it was over 1000 nM; in assay [4], over 1000 nM.

Turning to `Cc1cc(C(=O)N2CCN(C(=O)c3cc4nc(-c5ccc(Cl)cc5)cc(C(C)(C)C)c4o3)C(C)(C)C2)[nH]n1` [Example I-177], the IC50 in assay [1] was 1.4 nM; in assay [2], 2 nM; in assay [3] it was over 1000 nM; in assay [4] it was over 1000 nM.

For the compound `Cc1nnc(C(=O)N2CCN(C(=O)c3cc4nc(-c5ccc(Cl)cc5)cc(C(C)(C)C)c4o3)C(C)(C)C2)[nH]1` [Example I-178], the IC50 is 0.7 nM in assay [1], 1 nM in assay [2], over 1000 nM in assay [3] and over 1000 nM in assay [4].

With `Cc1nnc(C(=O)N2CCN(C(=O)c3cc4nc(-c5ccc(Cl)cc5)cc(C(C)(C)C)c4o3)C(C)(C)C2)o1` [Example I-179], the IC50 is 2.8 nM in assay [1], 5.5 nM in assay [2], over 1000 nM in assay [3] and over 1000 nM in assay [4].

For the compound `Cc1ncc(C(=O)N2CCN(C(=O)c3cc4nc(-c5ccc(Cl)cc5)cc(C(C)(C)C)c4o3)C(C)(C)C2)[nH]1` [Example I-180], the IC50 in assay [1] was 1.1 nM; in assay [2], 2.3 nM; in assay [3], over 1000 nM; in assay [4], over 1000 nM.

For the compound `CC(C)(C)c1cc(-c2ccc(Cl)c(F)c2)nc2cc(C(=O)N3CCN(C(=O)c4ncn[nH]4)CC3(C)C)oc12` [Example I-181], the IC50 in assay [1] was 0.9 nM; in assay [2], 1.6 nM; in assay [3], over 1000 nM; in assay [4], over 1000 nM.

For the compound `CC(C)(C)c1cc(-c2ccc(F)cc2)nc2cc(C(=O)N3CCN(c4cn[nH]c4)C(=O)C3(C)C)oc12` [Example I-182], the IC50 in assay [1] is 1.1 nM; in assay [2], 5.8 nM; in assay [3], over 1000 nM; in assay [4], over 1000 nM.

For `Cc1nnc(C(=O)N2CCN(C(=O)c3cc4nc(-c5ccc(F)cc5)cc(C(C)(C)C)c4o3)C(C)(C)C2)o1` [Example I-183], the IC50 is 2.6 nM in assay [1], 9.1 nM in assay [2], over 1000 nM in assay [3] and over 1000 nM in assay [4].

What is called IC50 is the concentration that gives 50% inhibition.
